Measured values taken from patent publication US20250082760A1 (priority 2020, published 2025).
Where a name gives a salt, the structure may show the parent alone.

Experiments:
[1] = tested on: reserpine-treated mice; experiment: mouse sugar water preference test (reserpine depression model); format: in vivo, Kunming mice; conditions: after Res 6 mg/kg i.p., CLI 50, Pro 25, A1P1 24 and 25, compound 5 56 mg/kg i.p.; for Sugar water preference (sugar water drinking amount/total drinking amount): Means±SEM, Res + DMSO 0.642 ± 0.036, DMSO 0.901 ± 0.026
Experimental: Experimental drug, clomipramine (CLI), sigma company, batch number: C7291, 10 mg/ml (10% DMSO); reserpine (Res), sigma company, batch number: 83580, 1 mg/ml (10% DMSO);
SPF adult male Kunming mice, 20-30 g, Laboratory Animal Center of Lanzhou University, animal certificate number: SCXK (Gan) 2018-0002, reared in separate cages, temperature 22±1° C., humidity […], 12 h/12 h light and dark cycle controlled by dynamic light (light-on time 8:000 h, light-off time 20:000 h, light intensity≈100 lux), animals could eat and move freely.
(§1) Statistical analysis, the experimental data were analyzed by SPSS 19.0 statistical software, and all data were expressed as Means±SEM.

[2] = tested on: reserpine depression model mice; experiment: forced swimming test in mice (reserpine depression model); format: in vivo, Kunming mice; conditions: after Res 6 mg/kg i.p., CLI 50, Pro 25, A1P1 24 and 25, compound 5 56 mg/kg i.p.; for Forced swimming immobility time: 5 min test, Means±SEM, Res + DMSO 169.82 ± 11.22, DMSO 106.72 ± 16.49
Experimental: Experimental Drug, Animal, Grouping and Administration are Same as Sugar Water Preference Experiment Method.
Preparation of depression animal models, acute intraperitoneal injection of 6 mg/kg Res can cause a continuous decrease in monoamine neurotransmitters in the brain for 1 week, and depression-like behaviors last for 72 hours, it is often utilized for the preparation of depression models (Huang et al., 2004).
Forced swimming experiment process, the forced swimming experiment is an experiment in which animals are placed in an unavoidable stressful environment to detect the despair state of animal behavior (Porsolt et al., 1978). Male Kunming mice were selected and randomly divided into groups. Conduct in a quiet and enclosed behavioral observation room, with red lights for indoor lighting (25 lux). The experiment is divided into two stages, the first stage: adaptation experiment, 1 day before the test, 9:00-12:00 h, put the animals into the forced swimming test equipment (plexiglass drum: diameter 20 cm, height 25 cm, water depth 12 cm, water temperature 21-25° C., the upper side CCD camera is connected to the computer to record) after 15 minutes of adaptation, take it out, dry the hair with a towel and put it back into the cage. The second stage: testing experiment, animals in each group were put into the forced swimming bucket for 5 minutes at the same time period, and the behavioral activities during the testing period were tracked and recorded by digital cameras and then analyzed. Immobility time: The animal floats on the water surface, with no movement of the limbs or slight movement of the hind limbs to keep the head above the water surface. Evaluate depression like behavior by detecting the despair state of animals based on their immobility time.
as §1

[3] = tested on: righting reflex in mice; experiment: mouse righting reflex test (sedative and hypnotic effects); format: in vivo, Kunming mice; conditions: intraperitoneal, Pro 25 mg/kg, n = 7
Experimental: Experimental animals, SPF Kunming mice, male, 20-30 g, Laboratory Animal Center of Lanzhou University (certificate number: SCXK (Gan) 2018-0002), reared in separate cages, temperature, 22±1° C., humidity, 50%, automatic in the light-controlled 12 h/12 h light-dark cycle (light-on time 8:00 h, light-off time 20:00 h, light intensity ≈100 lux) environment, free food and activities, adapted to the experimental environment for 5 days.
as §1

[4] = tested on: hot plate pain threshold in mice; experiment: hot plate method, compound 1, intragastric administration; format: in vivo
Experimental: All the mice participating in the experiment were subjected to hot plate pain threshold detection before the experiment, and qualified mice with pain threshold of 10-40 s were screened.
Accurately weigh an appropriate amount of compound 1, dissolve it in distilled water and prepare a mother liquor of 100 mg/ml, then dilute to 1.25 mg/ml (25 mg/kg), 2.5 mg/ml (50 mg/kg) with double distilled water respectively; accurately weigh an appropriate amount of the positive control drug gabapentin, dissolve in distilled water and prepare a 100 mg/ml mother solution, and then dilute to 10 mg/ml (200 mg/kg) with double distilled water. All medicines are prepared and utilized as needed.
40 only qualified mice were divided into 4 groups, half male and half female in each group. The first group is the blank group, no administration; the second group is the positive control (gabapentin) 25 mg/kg group; the third group is the test drug 25 mg/kg group; the fourth group is the test drug 50 mg/kg group 4. All were administered by gavage.
The mice were placed in a hot plate apparatus at a temperature of 55±0.5° C., and the pain thresholds of the mice were measured and recorded before administration and 60 min after administration.

[5] = tested on: nitroglycerin-induced migraine mouse model; experiment: nitroglycerin-induced migraine mouse model (hot plate, head scratching, body weight); format: in vivo, ICR mice
Experimental: 48 ICR mice weigt 18-22 g, half male and half female; purchased from Qinglongshan Animal Breeding Farm, Jiangning District, Nanjing City, certificate: SCXK (Su) 2017-0001; rearing conditions: room temperature 18-20° C., same sex rearing in separate cages, 12 hours of light, regular ventilation, conventional full-price solid feed feeding, bedding changed every two days; 48 mice were randomly divided into 6 groups (blank control group, model group, positive drug group, low-dose group of test drug, medium-dose group of test drug, high-dose group of test drug), 8 animals (4♀4) in each group, marked No. 1-8 with picric acid respectively.
Solvent: 0.5% CMC-Na aqueous solution; positive drug: flunarizine hydrochloride (sibelin) capsules (specification 5 mg), take the contents in a mortar, add 100 ml of 0.5% CMC-Na solution while grinding, placed in EP tubes for standby; Test drug (compound 5): dissolve into 5, 10, 20 mg/ml solutions with distilled water respectively, and placed in EP tubes for standby; Modeling drug (nitroglycerin): take 2 nitroglycerin tablets (specification 5 mg), crushed into powder, placed in EP tubes, added 500 μl of propylene glycol with a pipette and shaken well, standing still for 5 minutes, added 9.5 ml of normal saline, shaken well and standing still overnight, take the supernatant (containing nitroglycerin) 1 mg/ml) for use.
Except for the first group (blank control group), animals in other groups were subcutaneously injected with 10 mg/kg (0.2 ml/20 g) of nitroglycerin back-up solution 1 h after each administration (modeling once every other day on the 1st, 3rd, and 5th days).
The first group was the blank control group, which was given 0.5% CMC-Na 0.2 ml/20 g by gavage; the second group was the model group, which was given 0.5% CMC-Na by gavage; the third group was the positive drug group, which was given by gavage Flunarizine hydrochloride (sibilin) 1 mg/kg; the fourth group was the low-dose group of test drug, which was given 100 mg/kg of compound 5 by gavage; the fifth group was the medium-dose group of test drug, which was given 200 mg/kg of compound 5 by gavage; the sixth group was the high-dose group of test drug, which was given 400 mg/kg of compound 5 by gavage. Dosing every other day on days 1, 3, and 5.
In behavioral studies, mice scratching their heads for more than 5 times or scratching their faces with forelimbs for more than 5 times were identified as migraine-related behaviors caused by modeling, with a record of scratching their heads once; in the hot plate method, mice lifted their hind limbs and licked their hind feet as the observation indicator, record the time immediately.

[6] = tested on: lipopolysaccharide-induced depression mouse model; experiment: lipopolysaccharide-induced depression mouse model (open field, forced swimming test, body weight); format: in vivo, ICR mice
Experimental: Positive drug: fluoxetine hydrochloride capsule (specification 20 mg), take the content in a mortar, add 40 ml of 0.5% CMC-Na solution while grinding, to a suspended state, set EP tube for use; test drug (compound 5): dissolve into 5, 10, and 20 mg/ml solutions in distilled water, respectively, and put them in EP tubes for later use; modeling drug (LPS): take a frozen lipopolysaccharide PBS solution (1.2 mg: 1.2 ml), and after thawing Use a pipette to take 1 ml into the EP tube, replace with a new pipette tip and pipette 9 ml of normal saline into the EP tube, shake well for use.
Except for the first group (blank control group), other groups of animals were intraperitoneally injected with LPS 2 h before the last administration on the 7th day to the mice in the model group, the positive drug group, and the low, middle and high dose groups of the test drug.
The first group was the blank control group, which was given 0.5% CMC-Na 0.2 ml/20 g by gavage; the second group was the model group, which was given 0.5% CMC-Na by gavage; the third group was the positive drug group, which was given by gavage Flunarizine hydrochloride (sibilin) 1 mg/kg; the fourth group was the low-dose group of the test drug, which was given 100 mg/kg of compound 5 by gavage; the fifth group was the medium-dose group of the test drug, which was given 200 mg/kg by gavage. kg of compound 5; the sixth group was the test drug high-dose group, and 400 mg/kg of compound 5 was administered by gavage. The drug was administered for one week, and the second to sixth groups were intraperitoneally injected with 1 mg/kg (0.2 ml/20 g) of LPS on the seventh day to establish a model.
On the 7th day, before the last administration and modeling, the effect of the drug on the spontaneous activity of the mice should be investigated, and it is excluded that the drug increases the spontaneous activity of the mice and interferes with the immobility time in the forced swimming experiment. The total migration distance of each mouse in the open field (50×50×50 cm) within 5 min was calculated using the open field experimental instrument and related computer software. Before the data collection, each mouse was given 5 min to familiarize with the open field environment, after each mouse was tested, its excrement was removed and the odor was eliminated with an alcohol spray bottle.
Because the air temperature is low, it is appropriate to control the water temperature by adding hot water to the cylinder.
In the spontaneous activity, the behavioral index selects the total migration distance of mice in the open field within 5 minutes,
by tracking the movement trajectory of mice through monitoring devices, and using computer software, the total distance of movement can be directly obtained; in the FST experiment, the mice were placed in a into a transparent cylinder filled with warm water (about 25° C.) for 6 minutes, the mice will experience struggling, swimming and floating behaviors, the time when the mice stop struggling to float on the water surface is identified as a state of despair caused by depression, by using monitoring equipment and computer software to statistically analyze the state of mice after 4 minutes, the total “Immobility time” can be directly obtained.

[7] = compound 5 56 mg/kg, A1P1 24 and 25 mg/kg, Dia 5 mg/kg

For `CN(C)CCCN1c2ccccc2CCc2ccc(Cl)cc21` [CLI, clomipramine, reference compound], the “change of preference for sugar water compared with the Res+DMSO group” value [1] was “significantly increased”, the “Sugar water preference (sugar water drinking amount/total drinking amount)” value [1] was 0.812 ± 0.025 and the “change of forced swimming immobility time compared with the Res+DMSO group” value [2] was “significantly shortened”. The “Forced swimming immobility time” value [2] was 80.66 ± 23.68 s.

In the case of `CN1C(=O)CN=C(c2ccccc2)c2cc(Cl)ccc21` [Dia, Diazepam, reference compound], the “Disappearance time (latency of disappearance of the righting reflex)” value [3, 7] is reported as “did not disappear” and the “Observation of activity and other phenomena” value [3, 7] is reported as “significantly reduced”.

With `NCC1(CC(=O)O)CCCCC1` [Gabapentin, gabapentin, reference compound] the “Pain response time Before administration” value ([4]; 25 mg/kg gavage group, baseline, n 10, X ± SD) was 16.6 ± 5.2 s, the “Pain response time After administration” value ([4]; 25 mg/kg gavage, 60 min after administration, X ± SD) was 33.5 ± 15.0 s and the “Pain response time extension rate” value ([4]; 25 mg/kg gavage, 60 min after administration, blank group 3.9 ± 6.6) was 113.4 ± 99.1 %.

In the case of `CC(C)c1cccc(C(C)C)c1O` [Pro, Propofol, reference compound], the “change of preference for sugar water compared with the Res+DMSO group” value [1] is reported as “rose significantly”, the “Sugar water preference (sugar water drinking amount/total drinking amount)” value [1] is reported as 0.789 ± 0.043 and the “change of forced swimming immobility time compared with the Res+DMSO group” value [2] is reported as “slightly shortened”. The “Forced swimming immobility time” value [2] was 145.01 ± 21.21 s, the “Duration (disappearance to recovery of the righting reflex)” value [3] was 150.97 s and the “Observation of activity and other phenomena” value [3, 7] was “significantly reduced”.

For `Fc1ccc(C(c2ccc(F)cc2)N2CCN(C/C=C/c3ccccc3)CC2)cc1` [flunarizine hydrochloride, reference compound], the “weight gain of mice” value ([5]; reference blank group, compound 5 100, 200, 400 mg/kg, flunarizine hydrochloride 1 mg/kg, gavage, p>0.05) was “no significant difference”, the “hind feet licking time (hot plate)” value ([5]; reference model group, flunarizine hydrochloride 1 mg/kg gavage, 45 min after modeling, day 5, p<0.05) was “significant difference” and the “total number of head scratching times” value ([5]; reference model group, flunarizine hydrochloride 1 mg/kg gavage, day 5) was “extremely significant (p<0.01)”.

In the case of `CNCCC(Oc1ccc(C(F)(F)F)cc1)c1ccccc1` (stereo not shown) [fluoxetine hydrochloride, reference compound], the “effect on body weight of mice” value ([6]; compound 5 100, 200, 400 mg/kg and positive drug, gavage for one week) is reported as “no significant effect”, the “alleviation of depressive behavior caused by LPS” value ([6]; compound 5 100, 200, 400 mg/kg and positive drug, gavage for one week, no statistical difference found) is reported as “certain alleviation effect” and the “spontaneous activity: total migration distance in open field within 5 minutes” value ([6]; reference blank group, day 7 before last administration, all dose groups, p>0.05) is reported as “no significant effect”. The FST immobility time ([6]; reference model group, compound 5 100, 200, 400 mg/kg and positive drug, gavage for one week, 4 h after LPS) was “not significantly different (p>0.05)”.
